Experimental data as given in PubChem BioAssay (NCI).
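1) Cells in 96-well plates. 2) Compound, 48 h, 5 concentrations. 3) Linear interpolation between surrounding doses. 4) Unreached endpoint = highest concentration. GI50 marks 50% less growth. Definition used: TGI = concentration required for complete inhibition of growth.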

Columns and labels:
Assay in all cases: DTP human tumour cell line panel, 48 h
NCI-H460 lung = tested on: NCI-H460 lung
786-0 renal = tested on: 786-0 renal
M19-MEL melanoma = tested on: M19-MEL melanoma
COLO 205 colon = tested on: COLO 205 colon
OVCAR-8 ovarian = tested on: OVCAR-8 ovarian
UO-31 renal = tested on: UO-31 renal
DMS 114 small cell lung = tested on: DMS 114 small cell lung
NCI-H522 lung = tested on: NCI-H522 lung
M14 melanoma = tested on: M14 melanoma
MDA-MB-435 = tested on: MDA-MB-435

Row | Compound | TGI (NCI-H460 lung) [µM] | TGI (786-0 renal) [µM] | TGI (M19-MEL melanoma) [µM] | TGI (COLO 205 colon) [µM] | TGI (OVCAR-8 ovarian) [µM] | TGI (UO-31 renal) [µM] | TGI (DMS 114 small cell lung) [µM] | TGI (NCI-H522 lung) [µM] | TGI (M14 melanoma) [µM] | GI50 (NCI-H460 lung) [nM] | GI50 (786-0 renal) [µM] | GI50 (COLO 205 colon) [µM] | GI50 (OVCAR-8 ovarian) [µM] | GI50 (UO-31 renal) [µM] | GI50 (NCI-H522 lung) [nM] | GI50 (M14 melanoma) [µM] | GI50 (MDA-MB-435) [nM] | TGI (MDA-MB-435) [µM] | GI50 (M19-MEL melanoma) [µM] | GI50 (DMS 114 small cell lung) [µM]
1 | CS(=O)(=O)N(CCC#N)c1ccc(/C=N/NC(=O)CC(=O)Nc2cccc(Cl)c2)cc1 | > 100 | > 100 | > 100 | > 100 | > 100 | > 100 | > 100 | > 100 | > 100 |  |  |  |  |  |  |  |  |  |  | 
2 | COc1ccc(S(=O)(=O)N/N=C/CN2C(=O)c3ccccc3C2=O)cc1OC | > 100 | > 100 | > 100 | > 100 | > 100 | > 100 | > 100 | > 100 | > 100 |  |  |  |  |  |  |  |  |  |  | 
3 | CCOC(=O)C(=O)C1C(=O)Nc2ccccc21 (stereo unspecified) | > 100 | > 100 | > 100 | > 100 | > 100 | > 100 | > 100 |  | > 100 |  |  |  |  |  |  |  |  |  |  | 
4 | Oc1ccc2occ3c2c1CCC3 | > 100 | > 100 | > 100 | > 100 | > 100 |  | > 100 |  | > 100 |  |  |  |  |  |  |  |  |  |  | 
5 | O=C(O)CNS(=O)(=O)c1ccc(NC(=O)c2ccc(F)cc2)cc1 | > 100 | > 100 | > 100 | > 100 | > 100 | > 100 |  |  | > 100 |  |  |  |  |  |  |  |  |  |  | 
6 | CCN(CC)CC(=O)/C=C/c1ccc(C)cc1 | 46 | 34.4 | 32.7 | 34.5 | 43.8 | 39.8 | 37.9 |  | 32.2 |  |  |  |  |  |  |  |  |  |  | 
7 | CCN(CC)c1ccc(N=C2C=CC(=O)c3ncccc32)c(C)c1 | 21.8 | 16.6 | 22.6 | 5.04 | 10.5 | 30.4 | 12.9 |  | 13.4 |  |  |  |  |  |  |  |  |  |  | 
8 | CC1CCC2(NC1)OC1CC3[C@@H]4CC=C5C=CCC[C@]5(C)C4CC[C@]3(C)C1C2C (stereo partly specified) | 34.1 | 35.5 | > 100 | 34.6 | 48.1 | 68.7 | 46.8 |  | 50.9 |  |  |  |  |  |  |  |  |  |  | 
9 | O=c1[nH]c(-c2ccccc2)nc2ccc(Cl)cc12 |  | > 100 | > 100 | > 100 | > 100 | > 100 | > 100 | 95.7 |  |  |  |  |  |  |  |  |  |  |  | 
10 | O=C1c2ccccc2-c2c1c1ccc([N+](=O)[O-])cc1c(=O)n2CCNCCCNCCn1c2c(c3ccc([N+](=O)[O-])cc3c1=O)C(=O)c1ccccc1-2 | 18.7 | 2.92 |  | 9.77 | 8.76 | 6.84 |  | 19.5 | 23.5 | 2680 | 0.0515 | 0.433 | 0.0989 | 0.541 | 1140 | 0.888 | 1390 | 18.1 |  | 
11 | Cn1cc(NC(=O)c2cc(NC(=O)Nc3cc(C(=O)Nc4cc(C(=O)NCCC(=N)N)n(C)c4)n(C)c3)cn2C)cc1C(=O)NCCC(=N)N | 55.3 | 38.1 | 83.1 | 92.9 | 50 | > 100 | > 100 |  | 57.2 |  |  |  |  |  |  |  |  |  |  | 
12 | O=S1(=O)N(Cc2ccccc2)[C@@H](Cc2ccccc2)C2O[C@H]2[C@H](Cc2ccccc2)N1Cc1ccccc1 (stereo partly specified) | > 7.5 | > 7.5 |  | > 7.5 | > 7.5 | > 7.5 |  | > 7.5 | > 7.5 | 2530 | 5.12 | > 7.5 | > 7.5 | > 7.5 | 1830 | > 7.5 | > 7500 | > 7.5 |  | 
13 | CO/C(=N\N=C\c1ccc(Cl)cc1Cl)c1ccncc1 | > 10 | > 10 |  | > 10 | > 10 | > 10 |  | > 10 | > 10 |  |  |  |  |  |  |  |  | > 10 |  | 
14 | CNS(=O)(=O)NN(C)S(=O)(=O)c1ccc(Cl)cc1 |  | > 100 | > 100 | > 100 | > 100 | > 100 | > 100 | > 100 | > 100 |  |  |  |  |  |  |  |  |  |  | 
15 | CN(C)C(=S)NN=C(c1ccccn1)c1ccccn1 |  | 1.26 |  | 11.8 | 27 | 14.1 |  | 19.1 | 0.349 | < 25 | < 0.0232 | < 0.01 | 0.0361 | < 0.0184 | 124 | < 0.0147 | 76 | 16.7 |  | 
16 | CNc1nc(C)c(-c2nc(Nc3cccc(S(N)(=O)=O)c3)ncc2F)s1 | 3.89 | 3.42 |  | 0.0532 | 15.9 | 0.505 |  | 0.137 | 1.58 | 77.6 | 0.0248 | 0.0212 | 0.0394 | 0.035 | 44.9 | 0.0305 | 37.9 | 2.45 |  | 
17 | COc1cc(N=Nc2ccccc2)cc(/C=N\[N-]C(N)=S)c1[O-].COc1cc(N=Nc2ccccc2)cc(/C=N\[N-]C(N)=S)c1[O-].[Fe+4] |  | > 100 | 75.9 | 61.3 | > 100 | > 100 | 83.4 |  | > 100 |  | 36.2 | 24.3 | 29.1 | 30.6 |  | > 100 |  |  | 16.8 | 11.8
18 | NC1CCCCC1N.O=C([O-])P(=O)([O-])[O-].[Na+].[Pt+4] (stereo unspecified) | > 100 | > 100 | > 100 |  | > 100 | > 100 |  |  | > 100 | 55500 | > 100 |  | 98.2 | > 100 |  | > 100 |  |  | 85.1 | 
19 | CCN(CC)c1ccc(N=C2C=C(C(=O)Nc3ccc(S(C)(=O)=O)cc3)C(=O)c3ccccc32)c(C)c1 | > 100 | > 100 |  | > 100 | > 100 | > 100 |  | > 100 | > 100 | 35000 | > 100 | 32.7 | > 100 | 67.5 | 16700 | 88.5 | 7490 | 54.8 |  | 
20 | CC(=N\O)/C(C)=N/O.CC(=N\O)/C(C)=N/O.CC(=N\O)/C(C)=N/O.CC(=N\O)/C(C)=N/O.[Cu].[Cu] | 38.5 | 36.8 |  | 34 | 38.3 | 27.3 |  | 34.1 | 34.7 | 20400 | 19.8 | 18.8 | 20.3 | 13.4 | 18200 | 18.9 | 18500 | 33.7 |  | 
